Patent US8476302B2, “α-ketoamide derivatives useful endothelial lipase inhibitors” (Janssen Pharmaceutica N.V., priority 2010, dated 2013)
Several values for one entry are separate records, joined by “and”; a condition that tells them apart may be missing. Equal values may be shown once.

What was measured:
[1] = biological target: T1, Mouse EL (Mus musculus, UniProt Q9WVG5); assay: Endothelial Lipase Assay, cell surface lipase activity (mouse); format: cell-based; settings: PLA1 substrate 10 μM, fluorescence reaction rate, several values in a cell are repeat determinations
T1 construct: host or cells: not described for mouse EL
T1 sequence (Q9WVG5 21-500): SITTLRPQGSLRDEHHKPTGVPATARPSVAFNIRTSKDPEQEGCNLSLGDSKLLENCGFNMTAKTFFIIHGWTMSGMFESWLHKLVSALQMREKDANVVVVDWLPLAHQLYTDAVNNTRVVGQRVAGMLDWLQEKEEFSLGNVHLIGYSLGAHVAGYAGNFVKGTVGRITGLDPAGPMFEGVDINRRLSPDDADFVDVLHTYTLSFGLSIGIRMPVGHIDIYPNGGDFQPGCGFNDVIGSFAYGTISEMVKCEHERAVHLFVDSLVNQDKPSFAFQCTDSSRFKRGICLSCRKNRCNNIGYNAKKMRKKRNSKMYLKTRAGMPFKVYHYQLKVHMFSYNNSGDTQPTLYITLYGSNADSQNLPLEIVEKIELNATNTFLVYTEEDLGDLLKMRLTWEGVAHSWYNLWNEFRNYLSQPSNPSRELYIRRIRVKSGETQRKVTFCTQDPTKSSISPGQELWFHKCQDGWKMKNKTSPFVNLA
Description: (§1) Endothelial Lipase Assay (Human/Mouse)
(§2) To assay for cell surface lipase activity, cells expressing human endothelial lipase (EL) or LPL were plated in CellBIND® 384-well plates (Corning, Lowell, Mass.) in 25 μL serum free medium at a density of 2000 cells/well. After 18-24 hours incubation at 37° C., the medium was removed and replaced with 15 μL assay buffer [Hank's Buffered Saline Solution with 25 mM HEPES pH 7.2] and 15 μL PLA1 for a final concentration of 10 μM using a Multidrop reagent dispenser. Fluorescence signal was monitored for 30 min at 37° C. on a Safire II plate reader in kinetic mode (60 cycles, kinetic interval: 30 seconds) with an excitation wavelength of 490 nm and an emission wavelength of 515 nm. Linear regression of the fluorescence intensity collected from 480 to 1500 seconds was used to calculate the reaction rate (the slope) and the slopes were used to calculate IC50 values where appropriate. The amount of BODIPY-labeled product generated was calculated at the 30 min time point as determined from standard curve analysis of purified BODIPY FL C5. In all studies using the inhibitor Ebelactone B, consistent results were obtained when it was dissolved as a stock in DMSO, immediately before use.

[2] = biological target: T2, human endothelial lipase (EL) (Homo sapiens, UniProt Q9Y5X9); assay: Endothelial Lipase Assay, cell surface lipase activity (human); format: cell-based; settings: cells expressing human EL, PLA1 substrate 10 μM, fluorescence reaction rate; several values in a cell are repeat determinations
T2 construct: host or cells: cells expressing human endothelial lipase
T2 sequence (Q9Y5X9 21-500): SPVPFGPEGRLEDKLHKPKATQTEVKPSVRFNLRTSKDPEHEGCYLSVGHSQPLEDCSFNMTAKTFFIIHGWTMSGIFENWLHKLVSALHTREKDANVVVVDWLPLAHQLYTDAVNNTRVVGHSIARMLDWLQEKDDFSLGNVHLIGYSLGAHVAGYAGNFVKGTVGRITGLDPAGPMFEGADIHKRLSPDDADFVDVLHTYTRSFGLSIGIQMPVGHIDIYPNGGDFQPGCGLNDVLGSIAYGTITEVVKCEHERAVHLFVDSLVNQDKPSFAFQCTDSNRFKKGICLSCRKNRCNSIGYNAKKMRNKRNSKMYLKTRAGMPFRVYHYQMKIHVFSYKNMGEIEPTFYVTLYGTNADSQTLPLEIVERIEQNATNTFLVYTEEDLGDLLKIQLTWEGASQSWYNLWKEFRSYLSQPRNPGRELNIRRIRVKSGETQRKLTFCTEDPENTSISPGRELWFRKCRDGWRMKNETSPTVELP
Description: as §1, §2

Row | Compound | IC50 [1] | IC50 [2]
1 | O=C(CCCCCCc1ccccc1)C(=O)NCc1nnc(-c2ccc(NCc3ccc(F)c(F)c3)cc2)o1 [Compound 118] | 476 nM | 675 nM
2 | O=C(CCCCCCc1cccnc1F)C(=O)NCc1nnc(-c2ccc(Oc3ccccc3)cc2)o1 [Compound 119] | 904 nM | 979 nM
3 | O=C(CCCCCCc1cncnc1)C(=O)NCc1nnc(-c2ccc(Oc3ccccc3)cc2)o1 [Compound 120] | 973 nM | 1510 nM
4 | O=C(CCCCCCc1ccccc1)C(=O)NCc1nnc(-c2ccc(OCc3cccc(F)n3)cc2)o1 [Compound 121] | 187 nM | 471 nM
5 | CC(C)(C)OC(=O)N(Cc1cccnc1)c1ccc(-c2nnc(CNC(=O)C(=O)CCCCCCc3ccccc3)o2)cc1 [Compound 123] | 182 nM | 288 nM
6 | O=C(CCCCCCc1ccccc1)C(=O)NCc1nnc(-c2ccc(NCc3cccnc3)cc2)o1 [Compound 124] | 2930 nM | 3610 nM
7 | CC(C)(C)OC(=O)c1cccc(COc2ccc(-c3nnc(CNC(=O)C(=O)CCCCCCc4ccccc4)o3)cc2)c1 [Compound 125] | 993 nM | 2580 nM
8 | O=C(CCCCCCc1ccccc1)C(=O)NCc1nnc(-c2ccc(OCc3cccc(C(=O)O)c3)cc2)o1 [Compound 126] | 242 nM | 398 nM
9 | O=C(CCCCCCc1ccc(F)nc1)C(=O)NCc1nnc(-c2ccc(Oc3ccccc3)cc2)o1 [Compound 127] | 281 nM | 308 nM
10 | O=C(CCCCCCc1ccccc1)C(=O)NCc1nnc(-c2ccc(OCc3cccc(F)c3)cc2)s1 [Compound 128, N-((5-(4-((3-fluorobenzyl)oxy)phenyl)-1,3,4-thiadiazol-2-yl)methyl)-2-oxo-8-phenyloctanamide] | 87 nM | 129 nM
11 | O=C(CCCCCCc1ccccc1)C(=O)NCc1nnc(-c2ccc(OCc3ccccc3)cc2)s1 [Compound 129] | 264 nM | 325 nM
12 | O=C(CCCCCCc1ccccc1)C(=O)NCc1nnc(-c2ccc(Oc3ccccc3)cc2)s1 [Compound 130] | 80 nM | 111 nM
13 | O=C(CCCCCOc1cc(F)cc(F)c1)C(=O)NCc1nnc(-c2ccc(Oc3ccccc3)cc2)s1 [Compound 133] | 176 nM | 386 nM
14 | O=C(CCCCCOc1cccc(Cl)c1)C(=O)NCc1nnc(-c2ccc(Oc3ccccc3)cc2)s1 [Compound 134] | 243 nM | 604 nM
15 | O=C(CCCCCCc1ccc(C(F)(F)F)nc1)C(=O)NCc1nnc(-c2ccc(Oc3ccccc3)cc2)o1 [Compound 136] | 406 nM | 595 nM
16 | COC(=O)c1cccc(COc2ccc(-c3nnc(CNC(=O)C(=O)CCCCCCc4ccccc4)s3)cc2)c1 [Compound 137] | 37 nM | 93 nM
17 | O=C(CCCCCCc1ccccc1)C(=O)NCc1nnc(-c2ccc(OCc3cccnc3)cc2)s1 [Compound 138] | 58 nM and 79 nM | 55 nM and 108 nM
18 | O=C(CCCCCCc1ccccc1)C(=O)NCc1nnc(-c2ccc(OCc3ccccn3)cc2)s1 [Compound 139] | 42 nM | 71 nM
19 | O=C(CCCCCCc1ccccc1)C(=O)NCc1nnc(-c2ccc(OCc3ccncc3)cc2)s1 [Compound 140, 2-oxo-8-phenyl-N-((5-(4-(pyridin-4-ylmethoxy)phenyl)-1,3,4-thiadiazol-2-yl)methyl)octanamide] | 29 nM | 32 nM
20 | COC(=O)c1ccc(COc2ccc(-c3nnc(CNC(=O)C(=O)CCCCCCc4ccccc4)s3)cc2)o1 [Compound 141] | 45 nM | 101 nM
21 | NC(=O)c1cncc(CCCCCCC(=O)C(=O)NCc2nnc(-c3ccc(Oc4ccccc4)cc3)o2)c1 [Compound 142] | 897 nM | 1580 nM
22 | O=C(CCCCC=Cc1ccccc1)C(=O)NCc1nnc(-c2ccc(Oc3ccccc3)cc2)o1 [Compound 143] | 11100 nM | 7690 nM
23 | N#Cc1cccc(COc2ccc(-c3nnc(CNC(=O)C(=O)CCCCCCc4ccccc4)s3)cc2)c1 [Compound 144] | 249 nM | 421 nM

Row | Compound | IC50 [1] | IC50 [2]
24 | O=C(CCCCCCc1ccccc1)C(=O)NCc1nnc(-c2ccc(OCc3ccccc3F)cc2)s1 [Compound 145] | 168 nM | 312 nM
25 | O=C(CCCCCCc1ccccc1)C(=O)NCc1nnc(-c2ccc(OCc3cc(F)cc(F)c3)cc2)s1 [Compound 146] | 224 nM | 2320 nM
26 | O=C(CCCCCNc1ncccn1)C(=O)NCc1nnc(-c2ccccc2)o1 [Compound 148] | 14700 nM | 12300 nM
27 | CN(C)CCNC(=O)c1ccc(-c2nnc(CNC(=O)C(=O)CCCCCCc3ccccc3)o2)cc1 [Compound 149] | 3400 nM | 4250 nM
28 | CN(C)C(=O)c1cccc(COc2ccc(-c3nnc(CNC(=O)C(=O)CCCCCCc4ccccc4)s3)cc2)c1 [Compound 150] | 48 nM | 92 nM
29 | O=C(CCCCCCc1ccccc1)C(=O)NCc1nnc(-c2ccc(OCc3cccc(F)n3)cc2)s1 [Compound 151] | 661 nM | 712 nM
30 | O=C(CCCCCCc1ccccc1)C(=O)NCc1nnc(-c2ccc(OCc3ccnc(F)c3)cc2)s1 [Compound 152] | 207 nM and 48 nM | 115 nM and 42 nM
31 | Cc1ncsc1CCCCCCC(=O)C(=O)NCc1nnc(-c2ccc(OCc3cccc(F)c3)cc2)s1 [Compound 154, N-((5-(4-((3-fluorobenzyl)oxy)phenyl)-1,3,4-thiadiazol-2-yl)methyl)-8-(4-methylthiazol-5-yl)-2-oxooctanamide] | 47 nM | 36 nM
32 | O=C(CCCCCCc1ccccc1)C(=O)NCc1nnc(-c2ccc(OCc3cc[n+]([O-])cc3)cc2)s1 [Compound 156] | 383 nM | 397 nM
33 | CC(=O)Nc1ccc(CCCCCCC(=O)C(=O)NCc2nnc(-c3ccc(OCc4cccc(F)c4)cc3)s2)cn1 [Compound 157] | 1280 nM | 511 nM
34 | O=C(CCCCCCc1ccc(F)nc1)C(=O)NCc1nnc(-c2ccc(OCc3ccncc3)cc2)s1 [Compound 159] | 174 nM | 240 nM
35 | O=C(CCCCCCc1ccccc1)C(=O)NCc1nnc(-c2ccc(OCc3ccncc3F)cc2)s1 [Compound 161] | 37 nM | 93 nM
36 | O=C(CCCCCCc1ccccc1)C(=O)NCc1nnc(-c2ccc(OCc3cccc(Br)n3)cc2)s1 [Compound 162] | 202 nM | 1340 nM
37 | N#Cc1cccc(COc2ccc(-c3nnc(CNC(=O)C(=O)CCCCCCc4ccccc4)s3)cc2)n1 [Compound 163] | 236 nM | 974 nM
38 | O=C(CCCCCCc1ccccc1)C(=O)NCc1nnc(-c2ccc(OCc3cccc(Cl)n3)cc2)s1 [Compound 164] | 232 nM | 751 nM
39 | O=C(CCCCCCc1ccc(F)nc1)C(=O)NCc1nnc(-c2ccc(OCc3cccc(F)c3)cc2)s1 [Compound 165] | 48 nM | 48 nM
40 | Cc1ncsc1CCCCCCC(=O)C(=O)NCc1nnc(-c2ccc(OCc3ccncc3)cc2)s1 [Compound 166] | 479 nM | 809 nM
41 | O=C(CCCCCCc1ccc(F)nc1)C(=O)NCc1nnc(-c2ccc(OCc3ccccn3)cc2)s1 [Compound 167] | 217 nM | 360 nM
42 | O=C(CCCCCCc1ccc(F)nc1)C(=O)NCc1nnc(-c2ccc(OCc3ccnc(F)c3)cc2)s1 [Compound 168] | 64 nM | 107 nM
43 | O=C(CCCCCCc1ccc(F)nc1)C(=O)NCc1nnc(-c2ccc(OCc3ccnc(Cl)c3)cc2)s1 [Compound 169] | 62 nM | 85 nM
44 | COC(=O)c1cccc(COc2ccc(-c3nnc(CNC(=O)C(=O)CCCCCCc4ccc(F)nc4)s3)cc2)c1 [Compound 170] | 14 nM | 16 nM
45 | O=C(CCCCCCc1ccccc1)C(=O)NCc1nnc(-c2ccc(OCc3ccnc(Cl)c3)cc2)s1 [Compound 173] | 17 nM | 37 nM
